Key:
[1] = system: BCWM.1; experiment: CellTiter-Glo Luminescent cell viability assay, BCWM.1; format: cell-based; conditions: BCWM1, BCWM.1 cell line, 72 hours at 37° C., read-out: ED50 (the source's name)
Description: (§1) The CellTiter-Glo® Luminescent cell viability assay (Promega, Madison WI) was used to assess the dose-response of inhibitors alone or in combination. Cells were seeded into 384 well plates with the EL406 Combination Washer Dispenser (BioTek Instruments, Inc.) and inhibitors were injected into culture media with the JANUS Automated Workstation (PerkinElmer Inc., Waltham MA). Cells were incubated with inhibitors for 72 hours at 37° C. Luminescent measurements to assess cell viability were performed using the 2104 Envision® Multilabel Reader (PerkinElmer Inc.). Drug interactions were assessed by CalcuSyn 2.0 software (Biosoft, Cambridge UK) based on Chou TC.

[2] = system: MWCL-1; experiment: CellTiter-Glo Luminescent cell viability assay, MWCL-1; format: cell-based; conditions: MWCL-1 cell line, 72 hours at 37° C., read-out: ED50 (the source's name)
Description: as §1

[3] = system: TMD8; experiment: CellTiter-Glo Luminescent cell viability assay, TMD8; format: cell-based; conditions: Homo sapiens, TMD8 cell line, 72 hours at 37° C., read-out: ED50 (the source's name)
Description: as §1

[4] = system: HBL-1; experiment: CellTiter-Glo Luminescent cell viability assay, HBL-1; format: cell-based; conditions: HBL1, HBL-1 cell line, 72 hours at 37° C., read-out: ED50 (the source's name)
Description: as §1

[5] = system: OCI-Ly7; experiment: CellTiter-Glo Luminescent cell viability assay, OCI-Ly7; format: cell-based; conditions: Homo sapiens, OCI-Ly7 cell line, 72 hours at 37° C., read-out: ED50 (the source's name)
Description: as §1

[6] = system: OCI-Ly19; experiment: CellTiter-Glo Luminescent cell viability assay, OCI-Ly19; format: cell-based; conditions: Homo sapiens, OCI-Ly19 cell line, 72 hours at 37° C., read-out: ED50 (the source's name)
Description: as §1

[7] = system: RPMI-8226; experiment: CellTiter-Glo Luminescent cell viability assay, RPMI-8226; format: cell-based; conditions: Homo sapiens, RPMI-8226 cell line, 72 hours at 37° C., read-out: ED50 (the source's name)
Description: as §1

[8] = system: SU-DHL-6; experiment: CellTiter-Glo Luminescent cell viability assay, SU-DHL-6; format: cell-based; conditions: Homo sapiens, SU-DHL-6 cell line, 72 hours at 37° C., read-out: ED50 (the source's name)
Description: as §1

[9] = system: JeKo-1; experiment: CellTiter-Glo Luminescent cell viability assay, JeKo-1; format: cell-based; conditions: Homo sapiens, JeKo-1 cell line, 72 hours at 37° C., read-out: ED50 (the source's name)
Description: as §1

[10] = biological target: T1, IRAK4 (Homo sapiens, UniProt Q9NWZ3); experiment: IRAK4 enzymatic assay (Z'-LYTE, ThermoFisher); format: biochemical; conditions: 60 minutes at room temperature
T1 construct: purchased ThermoFisher
T1 sequence (Q9NWZ3 1-460): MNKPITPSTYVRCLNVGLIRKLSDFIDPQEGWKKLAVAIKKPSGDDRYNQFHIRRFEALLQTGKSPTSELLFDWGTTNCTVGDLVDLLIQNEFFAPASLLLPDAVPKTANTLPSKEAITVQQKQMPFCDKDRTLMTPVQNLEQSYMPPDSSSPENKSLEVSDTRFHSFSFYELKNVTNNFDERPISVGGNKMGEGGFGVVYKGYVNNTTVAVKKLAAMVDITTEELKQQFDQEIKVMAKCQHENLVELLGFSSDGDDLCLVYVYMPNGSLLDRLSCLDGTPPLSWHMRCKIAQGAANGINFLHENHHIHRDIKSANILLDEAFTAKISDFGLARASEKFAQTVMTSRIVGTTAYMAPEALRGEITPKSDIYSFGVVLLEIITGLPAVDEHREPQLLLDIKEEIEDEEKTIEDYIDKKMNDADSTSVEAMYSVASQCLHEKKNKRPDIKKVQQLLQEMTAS
Description: To measure the IC50 values of compounds herein against IRAK4, a Z′-LYTE assay (ThermoFisher) was used. Briefly, 2.5 μL of different concentrations of the compounds in 1% DMSO were added to 2.4 μL kinase buffer (50 mM HEPES pH 7.5, 0.01% BRIJ-35, 10 mM MgCl2, 1 mM EGTA) in each well of a 384-well plate (Corning Cat. #3676). 5 μL of 2×IRAK4/Ser/Thr 07 mixture (prepared in 50 mM HEPES pH 7.5, 0.01% BRIJ-35, 10 mM MnCl2, 2 mM DTT, and 0.02% NaN3) and 2.5 μL of 4×ATP solution (4×ATP, 50 mM HEPES, pH 7.5, 0.01% BRIJ-35, 10 mM MgCl2, 1 mM EGTA) were added to each well. The plate was shaken for 30 seconds, and then incubated at room temperature for 60 minutes. 5 μL of a 1:100000 dilution of Development Reagent A was added to each well. The plate was shaken for 30 seconds and incubated for 60 minutes at room temperature. The plate was subsequently read on a fluorescence plate reader, and the emissions ratio was calculated to determine the ratio of Ser/Thr 07 phosphorylated by the reaction. Emissions Ratio=Coumarin Emission (443 nm)/Flourescein Emission (520 nm).

[11] = biological target: T2, IRAK1 (Homo sapiens, UniProt P51617); experiment: IRAK1 enzymatic assay (Adapta Universal Kinase Assay, ThermoFisher); format: biochemical; conditions: 60 minutes at room temperature
T2 construct: purchased ThermoFisher
T2 sequence (P51617 whole entry): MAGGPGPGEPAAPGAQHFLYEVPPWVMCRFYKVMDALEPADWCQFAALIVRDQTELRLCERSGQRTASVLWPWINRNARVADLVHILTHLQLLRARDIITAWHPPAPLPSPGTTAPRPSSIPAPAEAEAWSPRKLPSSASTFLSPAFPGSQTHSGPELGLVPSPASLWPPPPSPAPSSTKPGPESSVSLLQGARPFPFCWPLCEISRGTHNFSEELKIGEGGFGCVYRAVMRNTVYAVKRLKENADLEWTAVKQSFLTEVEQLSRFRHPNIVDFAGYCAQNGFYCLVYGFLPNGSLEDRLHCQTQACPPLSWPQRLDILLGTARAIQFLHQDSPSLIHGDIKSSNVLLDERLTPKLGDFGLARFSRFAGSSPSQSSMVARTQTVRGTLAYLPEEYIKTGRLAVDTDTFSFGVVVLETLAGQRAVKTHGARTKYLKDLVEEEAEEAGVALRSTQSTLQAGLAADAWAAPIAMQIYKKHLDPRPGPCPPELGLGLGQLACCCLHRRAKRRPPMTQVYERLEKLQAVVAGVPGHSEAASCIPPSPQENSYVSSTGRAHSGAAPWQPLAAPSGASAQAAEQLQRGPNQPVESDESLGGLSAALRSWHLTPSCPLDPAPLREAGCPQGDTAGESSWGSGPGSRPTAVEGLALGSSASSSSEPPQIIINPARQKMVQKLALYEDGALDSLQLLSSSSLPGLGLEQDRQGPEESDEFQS
Description: To measure the IC50 values of the compounds herein against IRAK1, the Adapta Universal Kinase Assay (ThermoFisher) was used. Briefly, 100 nL of different concentrations of the compounds in 100% DMSO were added to each well of a 384-well plate (Corning Cat. #4512). 2.4 μL of 30 mM HEPES, 2.5 μL of 4×ATP solution (in water), and 5 μL of 2×IRAK1/Histone H3 (1-20) peptide mixture (prepared in 50 mM HEPES pH 7.5, 0.01% BRIJ-35, 10 mM MgCl2, 1 mM EGTA) were added to each well. The plate was shaken for 30 seconds and centrifuged for 1 minute at 1000×g. The plate was then incubated at room temperature for 60 minutes. 5 μL of Detection Mix was added to each well. The plate was shaken for 30 seconds and centrifuged for 1 minute at 1000×g. The plate was then incubated at room temperature for 60 minutes. The plate was subsequently read on a fluorescence plate reader, and the emissions ratio was calculated to determine the ratio of ATP to ADP. Emissions Ratio=AF647 Emission (665 nm)/Europium Emission (615 nm).

[12] = system: Ramos; experiment: CellTiter-Glo Luminescent cell viability assay, Ramos; format: cell-based; conditions: Homo sapiens, Ramos cell line, 72 hours at 37° C., read-out: ED50 (the source's name)
Description: as §1

[13] = system: multiple cell lines; experiment: Cellular IRAK4 inhibitory activity screened across multiple cell lines; format: cell-based
Description: as §1, with “TC. Cellular IRAK4 inhibitory activities of compound 015 and two commercial IRAK4 inhibitors, CA-4948 and PF06650833, were screened across multiple cell lines.” for “TC.”

Row | EC50 [5] [µM] | EC50 [6] [µM] | EC50 [7] [µM] | EC50 [8] [µM] | IC50 [10] [µM] | IC50 [11] [µM] | EC50 [12] [µM] | Compound | EC50 [1] [µM] | EC50 [2] [µM] | EC50 [3] [µM] | EC50 [4] [µM] | EC50 [9] [µM] | Potency compared with CA-4948 and PF06650833 [13]
1 | 13 | 2.2 | 14 | 8.69 |  |  |  | Cc1cc(-c2nc(C(=O)Nc3cc4oc(N5CCOCC5)nc4nc3N3CC[C@@H](O)C3)co2)ccn1 [CA-4948] | 1.99 | 11.9 | 9.37 | 11.1 | 6.57 | 
2 | 3.11 | 1.22 | 6.78 | 1.72 | 0.009 | 0.45 | 0.362 | Cc1ccc(-n2nc(C3CCN(C(C)C)CC3)cc2NC(=O)c2cccc(-c3cnn(CC(N)=O)c3)n2)nc1 [Compound 015, 6-(1-(2-amino-2-oxoethyl)-1H-pyrazol-4-yl)-N-(3-(1-isopropylpiperidin-4-yl)-1-(5-methylpyridin-2-yl)-1H-pyrazol-5-yl)picolinamide] | 3.33 | 6.92 | 3.92 | 2.2 | 6.26 | more potent in most cell lines
3 | 9.8 | 5.87 | 80.5 |  |  |  | 28.7 | CC[C@@H]1[C@H](F)C(=O)N[C@@H]1COc1nccc2cc(C(N)=O)c(OC)cc12 [PF06650833] | 11 | 18.3 | 24.1 | 14.8 |  | 

— patent publication US20240391899A1, “POTENT AND SELECTIVE INHIBITORS OF IRAK4” (Dana-Farber Cancer Institute, Inc., priority 2021, published 2024)
